Data taken from patent US12122811B2, “BDNF mimetic peptide amphiphiles” (Northwestern University, priority 2018, dated 2024).
Positions of bridges follow the written chain, without caps; N, C: chain ends. Non-standard residues stand in square brackets, D forms with d. Residues, ends and D or L forms follow the SMILES beside them. Chains are numbered I, II in the order given. *: point of attachment. PEG6 = NCCOCCOCCOCCOCCOCCOCCC(=O)O; Palmitoyl = CCCCCCCCCCCCCCCC(=O)*

System: mouse model of spinal cord injury
Test: Mouse model of spinal cord injury, Basso Mouse Scale hind limb scoring
Format: in vivo
Settings: for hindlimb function: over 12 weeks, vs E2 PA or saline
Source text: The spinal cord injury procedures used follow a standardized protocol to ensure a reproducible injury. Mice were anesthetized and their back is opened to reveal the vertebral column. The vertebral bone at T11 was surgically removed to reveal the spinal cord tissue. The mice were then transferred the impactor machine which is used to inflict a compression injury on the exposed spinal cord. The spinal cord was held in place using stereotactic clamps. The instrument inflicts a force of 70-80 kDynes and dwells in the place of the impact for 60 seconds to simulate a crush injury accident. This injury is quite severe. After each impact was performed, the instrument supplies a graph corresponding to the real force and trajectory of the impactor. This graph is used to compare and ensure that all animals receive an injury of the same nature. After the injury is inflicted, the animals were closed and allowed to rest for 24 hours.
The next day, the animals were re-opened and prepared for the “treatment” surgery. Before beginning the procedure, all animals underwent a behavioral assessment and mice with hind limb movement were discarded from the study. When the animal is re-opened, there was typically a dark, bruised area apparent where the crush injury took place the previous day. This is where the treatment was injected. A Hamilton syringe attached to a glass-pulled needle with a diameter of ˜300 μm was used to puncture the bruised dermis of the tissue and the treatment was injected into the underlying tissue cavity. Treatment types include; saline, and the C16V2A2E2 (E2) non-bioactive PA gel as negative controls, as well as the BDNF PA co-assembled at 20 mol % with the E2 non-bioactive PA gel.
After injection, the animals were closed and returned to cages to recover. Over the next 12 weeks, blinded hind limb behavioral scoring was performed to assess any functional changes (FIG. 21). A standardized “Basso Mouse Scale” was used (Basso et al. J Neurotrauma. 2006 May; 23(5):635-59.; herein incorporated by reference in its entirety). Two blinded researchers were either side of a runway where the mouse was guided to move in a straight line. As the mouse walks, each researcher grades the limb movement. Any discrepancies in evaluation were re-evaluated by a third researcher. The score for the two limbs was averaged and marked as the score for that animal.

In the case of CCCCCCCCCCCCCCCC(=O)N[C@H](C(=O)N[C@H](C(=O)N[C@@H](C)C(=O)N[C@@H](C)C(=O)N[C@@H](CCC(=O)O)C(=O)N[C@@H](CCC(=O)O)C(=O)N[C@@H](CCC(=O)O)C(=O)N[C@@H](CCC(=O)O)C(=O)NCCOCCOCCOCCOCCOCCOCCC(=O)NCCCC[C@@H]1NC(=O)[C@H]2CCCN2C(=O)[C@H](CCCNC(=N)N)NC(=O)[C@H](CCCCN)NC(=O)[C@H](CCCCN)NC1=O)C(C)C)C(C)C [BDNF PA, RKK(aK)(dP)-(PEG6 Spacer)-EEEEAAVV-C16 (SEQ ID NO: 5)] (I: Palmitoyl-VVAAEEEE[PEG6] / II: cyclo(KKKR[dP]); amide I:C-II:1), the “final average limb behavioral score (Basso Mouse Scale)” value (12 weeks after injury, BDNF PA co-assembled at 20 mol % with E2 PA gel, injected 24 h after injury) is reported as 3.7, the “rate of hindlimb improvement” value (first three weeks following injury) is reported as “increased rate of hindlimb improvement” and the hindlimb function is reported as “increased functional hind limb recovery”. The hindlimb function (listed as BDNF mimetic PA) was “significant improvement in hindlimb function”.
